Data published in PubChem BioAssay (NCI).
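The compound was tested at five concentrations on cells cultured in 96-well plates, with a 48-hour exposure period. TGI: total growth inhibition.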

Experiments:
Experiment in all cases: DTP human tumour cell line panel, 48 h
[1] = tested on: K-562 leukemia
[2] = tested on: SR leukemia
[3] = tested on: SF-295 CNS
[4] = tested on: HCT-116 colon
[5] = tested on: SK-MEL-2 melanoma
[6] = tested on: ACHN renal
[7] = tested on: U251 CNS
[8] = tested on: SF-268 CNS
[9] = tested on: MDA-N
[10] = tested on: A498 renal

Row | SMILES | TGI [1] | TGI [2] | TGI [3] | TGI [4] | TGI [5] | TGI [6] | TGI [7] | TGI [8] | TGI [9] | TGI [10]
1 | CC(=O)O[C@]12CCCCCC1C1(O)C(O)CCC[C@H]12 (stereo not given in full) | > 100 µM | > 100 µM | > 100 µM | > 100 µM | > 100 µM | > 100 µM | > 100 µM | > 100 µM |  | 
2 | CSc1c(C#N)c(N)n2c1C(=O)N(c1ccccc1)C2=S | > 100 µM |  | > 100 µM | > 100 µM |  | > 100 µM | > 100 µM | > 100 µM | > 100 µM | 94.3 µM
3 | COC(=O)c1c2c(cc3c1CC1(C3)Cc3cc4c(c(C(=O)OC)c3C1)CCCC4)CCCC2 | > 100 µM |  | > 100 µM | > 100 µM | 5.18 µM | > 100 µM | > 100 µM |  | > 100 µM | > 100 µM
4 | Cc1nn(C(=O)Cc2ccccc2)c2c1C(c1ccc(O)cc1)SC(N)=N2 (stereo not given) | > 100 µM | > 100 µM | > 100 µM | > 100 µM |  | > 100 µM |  | > 100 µM | > 100 µM | > 100 µM
5 | Clc1ccc(-c2nn3c(-c4ccncc4)nnc3s2)cc1 | > 100 µM | > 100 µM | > 100 µM | > 100 µM | > 100 µM | > 100 µM | 75 µM | > 100 µM | > 100 µM | 
6 | O=C(CNc1ccccc1Cl)Nn1c(-c2ccccc2)nc2ccccc2c1=O | 97.2 µM | 97.6 µM | 91.1 µM | > 100 µM |  | > 100 µM | 33 µM | > 100 µM |  | > 100 µM
7 | O=C1c2cc3c(cc2CC1Br)CCC3 (stereo not given) | 7.04 µM |  | 11.5 µM | 3.03 µM | 5.2 µM | 13.1 µM | 8.09 µM | 28.5 µM | 3.48 µM | 32.2 µM
8 | CCN(C(=S)N[C@@H](Cc1ccccc1)C(=O)N[C@@H](CC(C)C)C(=O)OC)c1ccccc1 | > 100 µM | 61.6 µM | > 100 µM | > 100 µM | > 100 µM | > 100 µM | > 100 µM |  | > 100 µM | 
9 | O=C(c1cc2ccccc2cc1O)N1CCCCC1 | 48.6 µM | 55.9 µM | > 100 µM | > 100 µM | 46.5 µM | > 100 µM | > 100 µM | > 100 µM |  | 63.2 µM
10 | O=P(c1ccccc1)(c1ccccc1)N1O[C@@H](c2ccccc2)C=C[C@H]1c1ccccc1 | 80.1 µM | 50.4 µM | 28.7 µM | 16.1 µM | 24.9 µM | 21.9 µM | 16.9 µM | 26.2 µM | 12.7 µM | 
11 | COCOc1ccc(Cn2c(=O)n(C)c(=O)c3c2ncn3C)cc1[N+](=O)[O-] | > 100 µM | > 100 µM | > 100 µM | > 100 µM |  | > 100 µM | > 100 µM | > 100 µM |  | 
12 | C(=N\NC1=NCCCN1)/c1ccc2ccccc2c1 | 12.6 µM |  | 24.7 µM | 22.4 µM | 28.2 µM | 22.2 µM | 19.8 µM | 30.2 µM | 22.5 µM | 20.8 µM
